Assay results published in patent publication US20060094691A1, “Inclusion complexes of rosiglitazone” (priority 2002, published 2006).

Experiment: Intrinsic Dissolution Rate (IDR) at pH 6.8 of the cyclodextrin complexes (Sotax intrinsic dissolution assembly, USP<1087>)
Type: physicochemical
Conditions: 100 rpm
Method: Data: Intrinsic Dissolution Rate (IDR) at pH 6.8 of the Cyclodextrin Complexes
The intrinsic dissolution rate was measured with a Sotax intrinsic dissolution assembly according to the procedure described in USP<1087>. The 8 mm diameter disc was formed from approximately 150 mg of cyclodextrin complex and compressed at a force of 5 tons for 30 seconds using a benchtop hydraulic press. The dissolution media was 1000 mL of water containing 31.6 mL of 1 M hydrochloric acid solution and 2.0 g of sodium chloride, which was adjusted to pH 6.8 with Tris/Acetate buffer, the dissolution volume was 900 mL at 37° C. and the rotating speed was 100 rpm. Detection was performed by flow through UV sampling every 2 minutes for 1 hour at 245 nm with a 1 cm path length.

IDR relative to the Maleate salt of Compound 1 (pH 6.8, 37° C., ratio to the maleate salt): 1
IDR (pH 6.8 dissolution media, 900 mL, 37° C., 8 mm disc, UV 245 nm): 0.057 mg/min/cm^2
SMILES: CN(CCOc1ccc(CC2SC(=O)NC2=O)cc1)c1ccccn1.O=C(O)/C=C\C(=O)O (centres unmarked) [Maleate salt of Compound 1, 5-[4-[2-(N-methyl-N-(2-pyridyl)amino)ethoxy]benzyl]thiazolidine-2,4-dione, maleate salt]
